Data published in US20250074891A1 (Anaxis Pharma Pty Ltd., priority 2021, published 2025).

What was measured:
Conditions in all cases: Table 35
[1] = biological target: RIP1 (Homo sapiens (Human), UniProt Q13546); assay: KINOMEscan binding assay, RIP1
[2] = biological target: RIP3 (Homo sapiens (Human), UniProt Q9Y572); assay: KINOMEscan binding assay, RIP3
Description: (§1) Kinase assays. For most assays, kinase-tagged T7 phage strains were grown in parallel in 24-well blocks in an E. coli host derived from the BL21 strain. E. coli were grown to log-phase and infected with T7 phage from a frozen stock (multiplicity of infection=0.4) and incubated with shaking at 32° C. until lysis (90-150 minutes).
(§2) The Hill Slope was set to −1.

[3] = biological target: MLKL (full length) (Homo sapiens (Human), UniProt Q8NB16); assay: KINOMEscan binding assay, MLKL (full length)
Description: as §1, §2

RIP1, sequence (Q13546 whole entry): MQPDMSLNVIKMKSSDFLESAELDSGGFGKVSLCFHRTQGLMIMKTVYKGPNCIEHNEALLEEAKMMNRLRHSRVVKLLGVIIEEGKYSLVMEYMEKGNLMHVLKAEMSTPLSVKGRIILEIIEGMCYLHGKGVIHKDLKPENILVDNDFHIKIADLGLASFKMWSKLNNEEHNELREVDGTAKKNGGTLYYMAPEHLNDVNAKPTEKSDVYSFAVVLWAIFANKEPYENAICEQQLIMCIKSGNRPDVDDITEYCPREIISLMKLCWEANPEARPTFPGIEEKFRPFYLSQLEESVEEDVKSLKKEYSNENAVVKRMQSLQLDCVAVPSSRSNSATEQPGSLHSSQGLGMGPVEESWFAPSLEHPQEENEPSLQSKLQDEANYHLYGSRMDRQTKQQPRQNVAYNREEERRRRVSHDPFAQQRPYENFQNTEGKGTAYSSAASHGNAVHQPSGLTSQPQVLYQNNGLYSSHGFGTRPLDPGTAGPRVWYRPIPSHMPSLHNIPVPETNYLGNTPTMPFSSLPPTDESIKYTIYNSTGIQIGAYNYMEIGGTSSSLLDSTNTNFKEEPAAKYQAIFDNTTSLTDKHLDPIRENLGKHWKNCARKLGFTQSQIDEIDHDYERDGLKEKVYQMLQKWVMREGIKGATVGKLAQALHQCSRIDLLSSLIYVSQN
RIP3, sequence (Q9Y572 whole entry): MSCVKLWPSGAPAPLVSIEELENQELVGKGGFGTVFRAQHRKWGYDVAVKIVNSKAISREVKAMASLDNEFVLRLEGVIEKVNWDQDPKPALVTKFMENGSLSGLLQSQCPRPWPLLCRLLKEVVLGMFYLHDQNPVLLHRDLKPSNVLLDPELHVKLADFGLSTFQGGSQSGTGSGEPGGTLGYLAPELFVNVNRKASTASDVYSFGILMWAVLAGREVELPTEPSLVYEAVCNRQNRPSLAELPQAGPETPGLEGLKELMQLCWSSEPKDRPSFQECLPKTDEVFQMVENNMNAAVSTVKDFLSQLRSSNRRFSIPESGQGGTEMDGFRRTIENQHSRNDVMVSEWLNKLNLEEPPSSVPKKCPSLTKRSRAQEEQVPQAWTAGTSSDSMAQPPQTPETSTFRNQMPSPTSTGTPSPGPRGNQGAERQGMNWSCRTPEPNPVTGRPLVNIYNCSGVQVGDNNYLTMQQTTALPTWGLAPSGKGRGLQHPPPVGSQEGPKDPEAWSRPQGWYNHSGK
MLKL (full length), sequence (Q8NB16 whole entry): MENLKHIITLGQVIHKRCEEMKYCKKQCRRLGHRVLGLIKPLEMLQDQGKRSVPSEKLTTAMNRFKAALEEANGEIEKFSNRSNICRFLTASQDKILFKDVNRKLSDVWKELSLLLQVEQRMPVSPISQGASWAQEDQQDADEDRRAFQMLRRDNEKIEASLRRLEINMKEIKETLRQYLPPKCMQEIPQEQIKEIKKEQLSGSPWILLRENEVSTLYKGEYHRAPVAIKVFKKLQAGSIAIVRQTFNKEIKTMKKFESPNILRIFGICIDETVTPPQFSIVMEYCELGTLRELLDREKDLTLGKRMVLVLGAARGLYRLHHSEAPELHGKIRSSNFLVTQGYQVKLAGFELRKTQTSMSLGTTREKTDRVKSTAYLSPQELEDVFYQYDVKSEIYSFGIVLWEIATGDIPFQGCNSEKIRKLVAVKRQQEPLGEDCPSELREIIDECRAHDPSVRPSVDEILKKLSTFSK

Row | Structure (SMILES) | Kd [1] [µM] | Kd [2] [µM] | Kd [3] [µM]
1 | CCS(=O)(=O)Nc1ccc(-c2n[nH]c(Nc3cnccn3)c2C(N)=O)cc1OCc1ccccc1F [Compound 2, 3-(4-(ethylsulfonamido)-3-((2-fluorobenzyl)oxy)phenyl)-5-(pyrazin-2-ylamino)-1H-pyrazole-4-carboxamide] | > 30 | > 30 | –
2 | CCS(=O)(=O)Nc1ccc(-c2n[nH]c(Nc3cccc(C(F)(F)F)n3)c2C(N)=O)cc1OCc1cccc(Cl)c1 [Compound 3, 3-(3-((3-chloro-benzyl)oxy)-4-(ethylsulfon-amido)phenyl)-5-((6-(trifluoro-methyl)pyridin-2-yl)amino)-1H-pyrazole-4-carboxamide] | > 30 | > 30 | –
3 | CCS(=O)(=O)Nc1ccc(-c2n[nH]c(Nc3cccc(C(F)(F)F)n3)c2C(N)=O)cc1OCc1ccc(Cl)cc1 [Compound 4, 3-(3-((4-chloro-benzyl)oxy)-4-(ethylsulfon-amido)phenyl)-5-((6-(trifluoro-methyl)pyridin-2-yl)amino)-1H-pyrazole-4-carboxamide] | > 30 | > 30 | –
4 | CCS(=O)(=O)Nc1ccc(-c2n[nH]c(Nc3cccnc3)c2C(N)=O)cc1OCc1ccc(F)cc1 [Compound 6, 3-(4-(ethylsulfonamido)-3-((4-fluorobenzyl)oxy)phenyl) 5-(pyridin-3-ylamino)-1H-pyrazole-4-carboxamide] | > 30 | > 30 | –
5 | CCS(=O)(=O)Nc1ccc(-c2n[nH]c(Nc3cnccn3)c2C(N)=O)cc1OCC1CCN(C(C)=O)CC1 [Compound 7, 3-(3-((1-acetylpiperidin-4-yl)methoxy)-4-(ethylsulfonamido)phenyl)-5-(pyrazin-2-ylamino)-1H-pyrazole-4-carboxamide] | > 30 | > 30 | –
6 | CCS(=O)(=O)Nc1ccc(-c2n[nH]c(Nc3cccc(C(F)(F)F)n3)c2C(N)=O)cc1OCc1ccc(F)cc1 [Compound 8, 3-(4-(ethylsulfon-amido)-3-((4-fluoro-benzyl)oxy)phenyl)-5-((6-(trifluoro-methyl)pyridin-2-yl)amino)-1H-pyrazole-4-carboxamide] | > 30 | > 30 | –
7 | CCS(=O)(=O)Nc1ccc(-c2n[nH]c(Nc3cccc(C(F)(F)F)n3)c2C(N)=O)cc1OCC1CCCC1 [Compound 10, 3-(3-(cyclopentyl-methoxy)-4-(ethylsulfon-amido)phenyl)-5-((6-(trifluoro-methyl)pyridin-2-yl)amino)-1H-pyrazole-4-carboxamide] | > 30 | > 30 | –
8 | CCS(=O)(=O)Nc1ccc(-c2n[nH]c(Nc3cccc(C(F)(F)F)n3)c2C(N)=O)cc1OCC(C)C [Compound 12, 3-(4-(ethylsulfonamido)-3-isobutoxyphenyl)-5-((6-(trifluoromethyl)pyridin-2-yl)amino)-1H-pyrazole-4-carboxamide] | > 30 | > 30 | –
9 | CCS(=O)(=O)Nc1ccc(-c2n[nH]c(Nc3cccc(C(F)(F)F)n3)c2C(N)=O)cc1OCc1ccncc1 [Compound 16, 3-(4-(ethylsulfon-amido)-3-(pyridin-4-ylmethoxy)phenyl)-5-((6-(trifluoro-methyl)pyridin-2-yl)amino)-1H-pyrazole-4-carboxamide] | > 30 | > 30 | –
10 | CCS(=O)(=O)Nc1ccc(-c2n[nH]c(Nc3ccccn3)c2C(N)=O)cc1OCC1CCCCC1 [Compound 35, 3-(3-(cyclohexyl-methoxy)-4-(ethylsulfon-amido)phenyl)-5-(pyridin-2-ylamino)-1H-pyrazole-4-carboxamide] | > 30 | > 30 | –
11 | CCS(=O)(=O)Nc1ccc(-c2n[nH]c(Nc3ccccn3)c2C(N)=O)cc1OCC1CCCC1 [Compound 36, 3-(3-(cyclopentyl-methoxy)-4-(ethylsulfon-amido)phenyl)-5-(pyridin-2-ylamino)-1H-pyrazole-4-carboxamide] | – | > 30 | –
12 | CCS(=O)(=O)Nc1ccc(-c2n[nH]c(Nc3ccccn3)c2C(N)=O)cc1OCC(C)C [Compound 37, 3-(4-(ethylsulfonamido)-3-isobutoxyphenyl)-5-(pyridin-2-ylamino)-1H-pyrazole-4-carboxamide] | > 30 | > 30 | –
13 | CCS(=O)(=O)Nc1ccc(-c2n[nH]c(Nc3cncc(C(F)(F)F)n3)c2C(N)=O)cc1 [Compound 44, 3-(4-(ethylsulfonamido)phenyl)-5-((6-(trifluoromethyl)pyrazin-2-yl)amino)-1H-pyrazole-4-carboxamide] | > 30 | > 30 | –
14 | CCS(=O)(=O)Nc1ccc(-c2n[nH]c(Nc3cnccn3)c2C(N)=O)cc1OCC(C)C [Compound 45, 3-(4-(ethylsulfonamido)-3-isobutoxyphenyl)-5-(pyrazin-2-ylamino)-1H-pyrazole-4-carboxamide] | – | > 30 | –
15 | COCCS(=O)(=O)Nc1ccc(-c2n[nH]c(Nc3cccc(C(F)(F)F)n3)c2C(N)=O)cc1 [Compound 50, 3-(4-((2-methoxyethyl)sulfonamido)phenyl)-5-((6-(trifluoromethyl)pyridin-2-yl)amino)-1H-pyrazole-4-carboxamide] | > 30 | > 30 | –
16 | CN(C)CCS(=O)(=O)Nc1ccc(-c2n[nH]c(Nc3cccc(C(F)(F)F)n3)c2C(N)=O)cc1 [Compound 51, 3-(4-((2-(dimethylamino)ethyl)sulfonamido)phenyl)-5-((6-(trifluoromethyl)pyridin-2-yl)amino)-1H-pyrazole-4-carboxamide] | > 30 | > 30 | –

Row | Structure (SMILES) | Kd [1] [µM] | Kd [2] [µM] | Kd [3] [µM]
17 | Cc1ccc(CS(=O)(=O)Nc2ccc(-c3n[nH]c(Nc4cccc(C(F)(F)F)n4)c3C(N)=O)cc2)cc1 [Compound 57, 3-(4-((p-tolylmethyl)sulfonamido)phenyl)-5-((6-(trifluoromethyl)pyridin-2-yl)amino)-1H-pyrazole-4-carboxamide] | – | > 30 | –
18 | CCS(=O)(=O)Nc1ccc(-c2n[nH]c(Nc3cccnn3)c2C(N)=O)cc1 [Compound 64, 3-(4-ethanesulfonamidophenyl)-5-[(pyridazin-3-yl)amino]-1H-pyrazole-4-carboxamide] | > 30 | > 30 | –
19 | CCS(=O)(=O)Nc1ccc(-c2n[nH]c(Nc3cnc4cc(Cl)ccc4n3)c2C(N)=O)cc1 [Compound 65, 5-((6-chloroquinoxalin-2-yl)amino)-3-(4-(ethylsulfonamido)phenyl)-1H-pyrazole-4-carboxamide] | > 30 | > 30 | –
20 | CC(C)(C)S(=O)(=O)Nc1ccc(-c2n[nH]c(Nc3cnccn3)c2C(N)=O)cc1 [Compound 69, 3-(4-((1,1-dimethylethyl)sulfonamido)phenyl)-5-(pyrazin-2-ylamino)-1H-pyrazole-4-carboxamide] | > 30 | > 30 | –
21 | NC(=O)c1c(-c2ccc(NS(=O)(=O)CC3CCC3)cc2)n[nH]c1Nc1cnccn1 [Compound 81, 3-(4-((cyclobutylmethyl)sulfonamido)phenyl)-5-(pyrazin-2-ylamino)-1H-pyrazole-4-carboxamide] | > 30 | > 30 | –
22 | COc1ccc(S(=O)(=O)Nc2ccc(-c3n[nH]c(Nc4cnccn4)c3C(N)=O)cc2)cc1 [Compound 82, 3-(4-((4-methoxyphenyl)sulfonamido)phenyl)-5-(pyrazin-2-ylamino)-1H-pyrazole-4-carboxamide] | > 30 | > 30 | –
23 | NC(=O)c1c(-c2ccc(NS(=O)(=O)Cc3cccc(C(F)(F)F)c3)cc2)n[nH]c1Nc1cnccn1 [Compound 83] | > 30 | > 30 | –
24 | CCCS(=O)(=O)Nc1ccc(-c2n[nH]c(Nc3cnccn3)c2C(N)=O)cc1 [Compound 97, 3-(4-(propylsulfonamido)phenyl)-5-(pyrazin-2-ylamino)-1H-pyrazole-4-carboxamide] | > 30 | > 30 | –
25 | CCS(=O)(=O)Nc1ccc(-c2n[nH]c(Nc3cc(C)ncc3F)c2C(N)=O)cc1 [Compound 111, 3-(4-(ethylsulfonamido)phenyl)-5-((5-fluoro-2-methylpyridin-4-yl)amino)-1H-pyrazole-4-carboxamide] | > 30 | > 30 | –
26 | COCCOc1cc(Nc2[nH]nc(-c3ccc(NS(=O)(=O)CCN(C)C)cc3)c2C(N)=O)ccn1 [Compound 116, 3-(4-((2-(dimethylamino)ethyl)sulfonamido)phenyl)-5-((2-(2-methoxyethoxy)pyridin-4-yl)amino)-1H-pyrazole-4-carboxamide] | > 30 | > 30 | –
27 | CCS(=O)(=O)Nc1ccc(-c2n[nH]c(NC)c2C(N)=O)cc1 [Compound 119, 3-(4-(ethylsulfonamido)phenyl)-5-(methylamino)-1H-pyrazole-4-carboxamide] | – | > 30 | –
28 | CCS(=O)(=O)Nc1ccc(-c2n[nH]c(Nc3ccnc(C)n3)c2C(N)=O)cc1 [Compound 125, 3-(4-(ethylsulfonamido)phenyl)-5-((2-methylpyrimidin-4-yl)amino)-1H-pyrazole-4-carboxamide] | > 30 | > 30 | –
29 | CCS(=O)(=O)Nc1ccc(-c2n[nH]c(Nc3cnccn3)c2C(N)=O)cc1OCc1c(C)cc(F)cc1C [Compound 142, 3-(4-(ethylsulfonamido)-3-((4-fluoro-2,6-dimethylbenzyl)oxy)phenyl)-5-(pyrazin-2-ylamino)-1H-pyrazole-4-carboxamide] | – | > 30 | –
30 | NC(=O)c1c(-c2ccc(NS(=O)(=O)CCC(F)(F)F)cc2)n[nH]c1Nc1cccc(C(F)(F)F)n1 [Compound 189, 5-((6-(trifluoromethyl)pyridine-2-yl)amino)-3-(4-((3,3,3-trifluoropropyl)sulfonamido)phenyl)-1H-pyrazole-4-carboxamide] | > 30 | – | < 0.01
31 | CCS(=O)(=O)Nc1ccc(-c2n[nH]c(Nc3ccc(OC)nc3)c2C(N)=O)cc1OCc1ccc(F)cc1 [Compound 197, 3-(4-(ethylsulfonamido)-3-((4-fluorobenzyl)oxy)phenyl)-5-((6-methoxypyridin-3-yl)amino)-1H-pyrazole-4-carboxamide] | > 30 | – | < 0.01
